Assay results reported in patent US20210000852A1, “POLYDATIN PACLITAXEL COMPOSITION, AND APPLICATION IN PREPARING MEDICAMENT FOR PREVENTING AND TREATING GASTRIC CANCER” (Tianjin Medical University Cancer Institute and Hospital, priority 2018, published 2021).

Experiments:
[1] = system: human gastric cancer cells SGC-7901; assay: CCK-8 growth and proliferation activity, SGC-7901 cells; assay type: cell-based; conditions: for inhibition of the activity of gastric cancer cells (single agent): SGC-7901, 24 h, concentration gradients; for IC50 / IC50 of SGC-7901 cells: SGC-7901, treated for 24 h
Excerpt: (§1) Human gastric cancer cell line SGC-7901 was purchased from Shanghai Genechem Co., Ltd. and human gastric cancer cell line AGS was purchased from Cell Bank of American Type Culture Collection (ATCC) (ATCC No. CRL-1739).
(§2) In FIG. 5, the mass ration of composition is as follows: (a) mPD: mPaclitaxel=22.65:1 (Example 3); (b) mPD: mPaclitaxel=45.29:1; (c) mPD: mPaclitaxel=90.59:1; (d) mPD: mPaclitaxel=226.48:1. In FIG. 6, the mass ration of composition is as follows: (a) mPD: mPaclitaxel=8.44:1; (b) mPD: mPaclitaxel=16.88:1; (c) mPD: mPaclitaxel=33.77:1 (Example 4).
(§3) In FIG. 7, the mass ration of composition is as follows: (a) mPD: mPactitaxel=45.29:1; (b) mPD: mPaclitaxel=90.59:1; (c) mPD: mPaclitaxel=226.48:1. In FIG. 8, the mass ration of composition is as follows: (a) mPD: mPaclitaxel=16.88:1; (b) mPD: mPaclitaxel=33.77:1.

[2] = system: human gastric cancer cells AGS; assay: CCK-8 growth and proliferation activity, AGS cells; assay type: cell-based; conditions: for inhibition of the activity of gastric cancer cells (single agent): 24 h, concentration gradients; for IC50 / IC50 of AGS cells: treated for 24 h
Excerpt: as §1, §2, §3

Row | Compound | inhibition of the activity of gastric cancer cells (single agent) [1] | IC50 [1] [µM] | IC50 of SGC-7901 cells [1] [µg/mL] | inhibition of the activity of gastric cancer cells (single agent) [2] | IC50 [2] [µM] | IC50 of AGS cells [2] [µg/mL]
1 | CC(=O)O[C@H]1C(=O)[C@@]2(C)[C@H]([C@H](OC(=O)c3ccccc3)[C@]3(O)C[C@H](OC(=O)[C@H](O)[C@@H](NC(=O)c4ccccc4)c4ccccc4)C(C)=C1C3(C)C)[C@]1(OC(C)=O)CO[C@@H]1C[C@@H]2O [Paclitaxel] | inhibit the activity of both gastric cancer cells in a concentration-dependent manner | 5.27 | 5.5 | inhibit the activity of both gastric cancer cells in a concentration-dependent manner | 3.34 | 6.3
2 | Polydatin | inhibit the activity of both gastric cancer cells in a concentration-dependent manner | 139 | 124.0 | inhibit the activity of both gastric cancer cells in a concentration-dependent manner | 56.2 | 53.5
